According to article PMC11311842, “Radiosynthesis and Preclinical Evaluation of ^18F-Labeled Estradiol Derivatives with Different Lipophilicity for PET Imaging of Breast Cancer” (Cancers, 2024):
“Also recorded” adds a separate entry of the source.

Key:
[1] = tested on: MCF-7 (ER+) tumor-bearing nude mice; test: Small animal PET imaging; type: in vivo
Protocol: Female NMRI nude mice (Crl:NMRI-Foxn1^nu) were purchased from Charles River (Charles River Laboratories Inc., Wilmington, MA, USA) at the age of four weeks and kept in groups of four to five animals in individually ventilated cages in a twelve hours dark/light cycle, with unlimited access to water and standard chow. At the age of nine to ten weeks, one 17β-estradiol pellet per animal (0.72 mg per pellet, 3 mm diameter) with a 60-day release time (Innovative Research of America, Sarasota, FL, USA) was subcutaneously implanted on the back under isoflurane anesthesia. After three days, approximately 2–3 × 10^6 MCF-7, T47D or MDA-MB-231 tumor cells (in 50 µL PBS) were mixed with Matrigel (50 µL, BD Biosciences, Becton, Dickinson and Company, Franklin Lakes, NJ, USA) and injected subcutaneously to the back of the mice. Tumor diameters and weight of the animals were recorded five times a week. Biodistribution or imaging studies were performed three–four weeks after the inoculation of the cells. […] Dynamic images were acquired for 60 min, starting with the injection of the radiotracer. […] Regions of interest (ROIs) were drawn over the tumor, and the mean radioactivity concentration within these regions was obtained from the mean values and calculated as a percentage of the total injected dose per gram tissue (%ID/g).

[2] = Plasma protein binding (MicroSpin G-50 columns); type: in vitro ADME; conditions: human plasma, 10 min, 37 °C
Protocol: MicroSPin G-50 columns (Cytiva, Merck KGaA, Darmstadt, Germany) were preconditioned according to the manufacturer’s protocol and the experiment was performed as follows. In brief, an aliquot of the tracer (1 µL, approx. 250 kBq) was added to NaCl (0.9%, 200 µL, negative control) or human plasma (200 µL) and incubated for 10 min at 37 °C. A sample from the plasma or negative control (40 µL) was carefully added to the resin, and the column was placed in an Eppendorf tube. After centrifugation (2 min, 2000× g), the eluate and the resin were collected separately. Both were measured for radioactivity using a γ-counter (Wallac Wizard, PerkinElmer, Waltham, MA, USA), and the radioactivity eluted from the resin was calculated as a percentage of the total amount of radioactivity. The determination of plasma protein binding was performed twice in duplicate.

[3] = Determination of logD7.4 (n-octanol/PBS); type: physicochemical; conditions: n-octanol/PBS pH 7.4; mean ± SD, three independent experiments
Protocol: For the determination of the octanol–water coefficient, an aliquot of the radiotracer was added to PBS (500 µL, pH 7.4) and n-octanol (500 µL) in an Eppendorf tube. The mixture was vortexed and subsequently centrifuged, each for 1 min. Three samples (each 100 µL) were taken from both the PBS and the n-octanol layer and measured using a γ-counter (Wallac Wizard, PerkinElmer, Waltham, MA, USA). The logD7.4 was expressed as log(cpmoctanol/cpmPBS) and reported as mean ± SD. The determination of logD7.4 was performed in three independent experiments, each performed in triplicate.

ER+ T47D tumor slices = test: In vitro autoradiography of T47D tumor slices; type: binding, human; conditions: 60 min, room temperature, with or without E2 (72 µM)
Protocol: MCF-7, MDA-MB231 and T47D tumors grown in nude mice were collected and frozen in a hexane/dry ice bath (−70 °C). Tumor slices (14 µm) were prepared on a cryostat microtome HM 500 O (Microm, Walldorf, Germany), thaw-mounted on HistoBond® adhesive glass slides (Marienfeld, Lauda-Königshofen, Germany) and stored at −80 °C. For in vitro autoradiography studies, the tumor tissue sections were thawed and pre-incubated in incubation buffer (50 mM Tris HCl, 5 mM MgCl2, 0.2% bovine serum albumin (BSA), pH 7.4) at room temperature for 15 min. Then, the sections were transferred to incubation buffer containing ^18F-TA-Glyco-EE (3–5 MBq) in a total volume of 70 mL. For the determination of non-specific binding, separate sections were incubated with ^18F-TA-Glyco-EE in the presence of E2 (72 µM). After an incubation time of 60 min, the sections were washed three times with incubation buffer, followed by a short dip in ice-cold distilled water. The slices were carefully dried in a stream of warm air and finally placed on a phosphor imager screen (Fuji Imaging Plate BAS-IP SR 2025 E) overnight prior to readout (30 µm resolution) using the HD-CR-35 Bio scanner (Elysia-Raytest, Straubenhardt, Germany). […] Regions of interest were analyzed from 3–4 tumor slices from the MCF-7, MDA-MB231 and T47D tumors, and mean values of the intensity per area were calculated.

SMILES: CC(=O)OC1C(C[18F])OC(n2cc(C3(O)CCC4C5CCc6cc(O)ccc6C5CCC43C)nn2)C(OC(C)=O)C1OC(C)=O (centres unmarked) [^18F-TA-Glyco-EE]
- Uptake in MCF-7 tumors (PET) ([1]; 60 min p.i.): around 1 %ID/g
- Tumor uptake, non-treated versus fulvestrant-treated animals (PET) ([1]; fulvestrant 0.5 mg s.c., second scan 48 h later, n = 4): significantly reduced tumor uptake on PET scans in one of the four animals; also recorded: did not show a significant difference
- Plasma Protein Binding [2]: 79 ± 1%
- logD7.4 [3]: 2.3 ± 0.1
- Binding to T47D tumor sections (autoradiography) (ER+ T47D tumor slices): high specific binding
